Assay in all cases: NCI anticancer screen, dose series, 48 h
In assay [1] the test system is UO-31 renal.
In assay [2] the test system is OVCAR-3 ovarian.
The test system of assay [3] is HT29 colon.
Assay [4] concerns MCF7 breast.
Assay [5] deals with HOP-62 NSCLC.
Assay [6] has as its system SK-MEL-28 melanoma.
Assay [7] concerns M14 melanoma.
Assay [8] concerns 786-0 renal.

Each structure is given as a SMILES string.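 Cultured in 96-well plates, cells were exposed to test compound for 48 hours across five concentrations. GI50 marks 50% less growth. TGI is the concentration that stops growth completely.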

`Clc1ccc2[nH]cc(-c3nnnn3-c3ccccc3)c2c1`: the GI50 was 26.9 µM in assay [1]; 6.66 µM in assay [2]; 11.9 µM in assay [3]; 29.8 µM in assay [4]; 28 µM in assay [5]; 14.3 µM in assay [6]. Further, the GI50 in assay [7] is 9.74 µM; in assay [8], 29.6 µM. For the same molecule, the TGI in assay [1] was > 100 µM; in assay [2], > 42.5 µM; in assay [3], > 70.9 µM; in assay [4] it was > 100 µM; in assay [5], > 100 µM; in assay [6], > 100 µM. Besides, the TGI was 41.8 µM in assay [7] and > 100 µM in assay [8].
In the case of `O=C1OCC2=C1C(c1cccc(Br)c1)c1cc3c(cc1N2CCO)CCC3` (stereo unspecified), the GI50 in assay [1] was 0.0997 µM; in assay [2] it was 0.0339 µM; in assay [3], 0.109 µM; in assay [4] it was 0.0257 µM; in assay [5] it was 0.0888 µM; in assay [6], 0.0564 µM. Besides, the GI50 in assay [7] was 0.078 µM; in assay [8], 0.201 µM. The TGI was 8.2 µM in assay [1]; 0.153 µM in assay [2]; 1.3 µM in assay [3]; 9.66 µM in assay [4]; 7.11 µM in assay [5]; 10.3 µM in assay [6]. Also, the TGI stood at 5.78 µM in assay [7] and 6.22 µM in assay [8].
As to `NCCNc1c2c(c(NCCN)c3[nH]ccc13)C(=O)c1ccccc1C2=O`, the GI50 was 13.8 µM in assay [1]; < 0.0489 µM in assay [2]; 0.0527 µM in assay [3]; 0.029 µM in assay [4]; 0.439 µM in assay [6]; 1.45 µM in assay [7]. Also, the GI50 in assay [8] was 0.224 µM. Besides, the TGI is > 60 µM in assay [1]; 0.251 µM in assay [2]; 0.634 µM in assay [3]; 0.323 µM in assay [4]; 0.624 µM in assay [5]; 1.8 µM in assay [6]. Further, the TGI stood at 2.76 µM in assay [7] and 1.04 µM in assay [8].
As for `Nc1nc(/C=C\c2ccc([N+](=O)[O-])s2)nc(N2CCCC2)n1`, the GI50 in assay [1] is 7.58 µM; in assay [2], 3.49 µM; in assay [3] it was 2.97 µM; in assay [4], 3.16 µM; in assay [5] it was 13.5 µM; in assay [6], 9.33 µM. For the same molecule, the GI50 was 3.72 µM in assay [7] and 10.8 µM in assay [8]. The TGI in assay [1] worked out at 22.2 µM; in assay [2] it was 12.2 µM; in assay [3] it was 14.8 µM; in assay [4], 16.1 µM; in assay [5] it was 26.7 µM; in assay [6], 23.6 µM. Further, the TGI in assay [7] amounted to 17.1 µM; in assay [8], 23.6 µM.
On to `COc1ccc(C(=O)/C=C/c2cc(-c3cc(OC)c(OC)c(OC)c3)n[nH]2)cc1OC`, for which the GI50 in assay [1] is 1.28 µM; in assay [2] it was 1.68 µM; in assay [3], 1.62 µM; in assay [4], 0.482 µM; in assay [5] it was 1.44 µM; in assay [6], 1.78 µM. Besides, the GI50 is 1.84 µM in assay [7] and 1.4 µM in assay [8]. Also, the TGI in assay [1] came to 2.57 µM; in assay [2], 3.17 µM; in assay [3], 3.05 µM; in assay [4], 1.95 µM; in assay [5], 2.77 µM; in assay [6], 3.34 µM. Further, the results for the TGI in assay [7] and in assay [8] were 3.69 µM and 2.86 µM, respectively.
Take `Cc1ccc(NC(=O)CC2CC2)cc1-c1ccc(C(=O)NCC2CC2)cc1`: the GI50 in assay [1], in assay [2], in assay [3], in assay [4], in assay [5] and in assay [6] was > 25 µM in each case. Besides, the GI50 in assay [7] and in assay [8] was > 25 µM throughout. The TGI in assay [1], in assay [2], in assay [3], in assay [4], in assay [5] and in assay [6] was > 25 µM in each case. Also, the TGI in assay [7] and in assay [8] was > 25 µM in each case.
With `Cc1c2c(C#N)nccc2c(C)c2c1c1ccccc1n2Cc1ccccc1`, the TGI in assay [1], in assay [2], in assay [3], in assay [4], in assay [5] and in assay [6] was > 100 µM throughout. The TGI in assay [7] and in assay [8] was > 100 µM in each case.
Consider `O=C(CSc1nc2ccccc2nc1-c1ccccc1)Nc1ccc(F)cc1`, for which the GI50 in assay [1] was 45.7 µM; in assay [2] it was 28 µM; in assay [3], 21.5 µM; in assay [4] it was 57.2 µM; in assay [5] it was 32.6 µM; in assay [6], 63.9 µM. For the same molecule, the GI50 was > 100 µM in assay [7] and 49.2 µM in assay [8]. Moreover, the TGI in assay [1] was > 100 µM; in assay [2], > 100 µM; in assay [3], 96.5 µM; in assay [4], > 100 µM; in assay [5], > 100 µM; in assay [6], > 100 µM. For the same molecule, the TGI in assay [7] and in assay [8] was > 100 µM each time.
Take `Cc1ncc(C(=O)Nc2ccc(CN3CCN(C)CC3)c(C(F)(F)F)c2)cc1C#Cc1cnc(N)c2ccncc12`: the GI50 in assay [1] is 0.457 µM; in assay [2], 1.67 µM; in assay [3], 0.432 µM; in assay [4], 1.35 µM; in assay [5] it was 1.38 µM; in assay [6] it was 1.27 µM. Moreover, the GI50 in assay [7] is 0.783 µM; in assay [8], 1.35 µM. Further, the TGI in assay [1] is 2.27 µM; in assay [2], 5.33 µM; in assay [3], 2.26 µM; in assay [4], 2.9 µM; in assay [5], 3.18 µM; in assay [6], 2.82 µM. The TGI in assay [7] turned out to be 2.5 µM; in assay [8] it was 3.3 µM.
For `C#C[C@]1(O)CCC2C3CCc4cc(O)ccc4C3CC[C@@]21C` (stereo partly specified), the GI50 is 6.81 µM in assay [1]; 3.14 µM in assay [2]; 3.65 µM in assay [3]; 9.51 µM in assay [4]; 4.34 µM in assay [5]; 5.85 µM in assay [6]. Also, the results for the GI50 in assay [7] and in assay [8] were 3.87 µM and 5.08 µM, respectively. In addition, the TGI was 28.8 µM in assay [1]; 8.43 µM in assay [2]; 18.6 µM in assay [3]; 25.2 µM in assay [4]; 16.6 µM in assay [5]; 19.7 µM in assay [6]. The TGI in assay [7] was determined as 13.5 µM; in assay [8], 21.9 µM.
`CCOC(=O)C(Cc1ccc(CCCC(=O)NCCC(=O)Nc2ccc3nc(C)sc3c2)cc1)C(=O)OCC`: the GI50 in assay [1] was 26.9 µM; in assay [2], 54.9 µM; in assay [3] it was > 64.2 µM; in assay [4], 22.2 µM; in assay [5], > 83.3 µM; in assay [6], 28.7 µM. The GI50 is 29.3 µM in assay [7] and > 77.9 µM in assay [8]. The TGI was > 76.8 µM in assay [1]; > 100 µM in assay [2]; > 100 µM in assay [3]; 64.3 µM in assay [4]; > 100 µM in assay [5]; > 96.7 µM in assay [6]. The TGI in assay [7] is > 93.8 µM; in assay [8], > 100 µM.
For the molecule `CNCC#Cc1c(F)ccc2c1/C(=C/c1[nH]ccc1OC)C(=O)N2`, the GI50 in assay [1] is 0.13 µM; in assay [2] it was 0.516 µM; in assay [3] it was 0.133 µM; in assay [4], 0.21 µM; in assay [5], 0.307 µM; in assay [6] it was 0.329 µM. Also, the GI50 is 0.181 µM in assay [7] and 0.215 µM in assay [8]. For the same molecule, the TGI in assay [1] was 2.6 µM; in assay [2], 2.74 µM; in assay [3], 1.82 µM; in assay [4] it was 3.04 µM; in assay [5], 2.68 µM; in assay [6], 2.88 µM. Moreover, the TGI came to 1.48 µM in assay [7] and 3.27 µM in assay [8].
Take `O=C(CC1(O)C(=O)N(Cc2ccccc2)c2ccc(F)cc21)c1ccc(C(=O)NCC2CCC3(CC2)OOC2(CCCCC2)OO3)cc1` (stereo unspecified): the GI50 in assay [1] was 0.18 µM; in assay [2] it was 0.254 µM; in assay [3] it was 0.362 µM; in assay [4], 1.92 µM; in assay [5], 0.179 µM; in assay [6], 4.38 µM. Moreover, the figures for the GI50 in assay [7] and in assay [8] were 2.02 µM and 0.18 µM, respectively. For the same molecule, the TGI was 0.352 µM in assay [1]; 0.634 µM in assay [2]; 1.28 µM in assay [3]; > 31.9 µM in assay [4]; 0.382 µM in assay [5]; > 84.7 µM in assay [6]. For the same molecule, the TGI was 6.63 µM in assay [7] and 0.344 µM in assay [8].
In the case of `C=C(C)[C@@H]1CC[C@]2(C)[C@H](CC=C3[C@@H]4CC(C)(C)CC[C@]4(C(N)=O)CC[C@]32C)[C@@]1(C)CCC#N`, the GI50 in assay [1] is 2.55 µM; in assay [2], 3.49 µM; in assay [3] it was 3.48 µM; in assay [4], 2.81 µM; in assay [5] it was 7.44 µM; in assay [6], 4.17 µM. For the same molecule, the GI50 in assay [7] is 3.11 µM; in assay [8], 2 µM. Moreover, the TGI was 7.52 µM in assay [1]; > 100 µM in assay [2]; > 100 µM in assay [3]; 24.5 µM in assay [4]; > 100 µM in assay [5]; > 100 µM in assay [6]. The TGI is > 100 µM in assay [7] and 4.12 µM in assay [8].
For `CCOC(=O)Nc1ccc(C)c(NC(=O)OCC)c1`, the TGI in assay [1], in assay [2], in assay [3], in assay [4], in assay [5] and in assay [6] was > 100 µM each time. The TGI in assay [7] and in assay [8] was > 100 µM each time.
`COc1cc(-c2cc(-c3cc4c([nH]c5ccccc54)c(-c4cc(OC)c(OC)c(OC)c4)n3)cc(-c3ccccc3)n2)cc(OC)c1OC`: the GI50 was 3.02 µM in assay [1]; 3.9 µM in assay [2]; 4.03 µM in assay [3]; 3.56 µM in assay [4]; 4.53 µM in assay [5]; 4.3 µM in assay [6]. Also, the GI50 is 3.49 µM in assay [7] and 7.15 µM in assay [8]. The TGI was 74.4 µM in assay [1]; 17.3 µM in assay [2]; 25.5 µM in assay [3]; 20.8 µM in assay [4]; > 100 µM in assay [5]; 30.2 µM in assay [6]. The TGI in assay [7] and in assay [8] was > 100 µM each time.
As for `CS(=O)(=O)CCNCc1nc(-c2ccc3ncnc(Nc4ccc(OCc5cccc(C(F)(F)F)c5)cc4)c3c2)cs1`, the GI50 in assay [1] is > 22.6 µM; in assay [2], > 17.3 µM; in assay [3] it was > 17.6 µM; in assay [4] it was > 17.5 µM; in assay [5] it was 5.5 µM; in assay [6], > 20.6 µM. In addition, the GI50 is > 25 µM in assay [7] and > 16.5 µM in assay [8]. Further, the TGI is > 25 µM in assay [1]; > 25 µM in assay [2]; > 25 µM in assay [3]; > 25 µM in assay [4]; 12.9 µM in assay [5]; > 25 µM in assay [6]. Further, the TGI in assay [7] and in assay [8] was > 25 µM throughout.
For the molecule `COc1cc(F)ccc1-c1ncnc(Nc2cccc(CS(C)(=N)=O)c2)n1` (stereo unspecified), the GI50 in assay [1] was 0.528 µM; in assay [2], 0.45 µM; in assay [3] it was 0.642 µM; in assay [4], 0.414 µM; in assay [5] it was 0.564 µM; in assay [6] it was 1.05 µM. Also, the GI50 in assay [7] is 2.25 µM; in assay [8], 1.18 µM. In addition, the TGI in assay [1] was > 100 µM; in assay [2], > 100 µM; in assay [3] it was 6.39 µM; in assay [4], > 100 µM; in assay [5], 8.38 µM; in assay [6], > 100 µM. The TGI in assay [7] and in assay [8] was > 100 µM in each case.

Values taken from PubChem BioAssay (NCI).
